Measurements: US20150086530A1, “DOSING REGIMENS FOR THE TREATMENT OF POMPE DISEASE” (Amicus Therapeutics, Inc., priority 2012, published 2015)

Experiments:
GAA = assay: rhGAA activity in WBC (PBMCs) of Pompe patients; format: in vivo, human
Text: GAA activity in WBCs will be determined in blood samples by a validated assay measuring enzyme activity using 4-MUG, with and without Con A. GAA protein levels will be measured by Western blotting using anti-human GAA antibody.

[1] = Thigh muscle MRI before and after ERT; format: in vivo; details: at one year of ERT
[2] = Cohort 1 (50 mg AT2220 in Period 2), Day 2, arithmetic mean, N 4
[3] = Cohort 1 (50 mg AT2220 in Period 2), Day 7, arithmetic mean, N 4
[4] = Cohort 1 (50 mg AT2220 in Period 2), Time 0, arithmetic mean, N 4
[5] = Cohort 1 (50 mg AT2220 in Period 2), Time 4 h, arithmetic mean, N 4
[6] = Cohort 2 (100 mg AT2220 in Period 2), Day 2, arithmetic mean, N 6
[7] = Cohort 2 (100 mg AT2220 in Period 2), Day 3, arithmetic mean, N 3
[8] = Cohort 2 (100 mg AT2220 in Period 2), Day 7, arithmetic mean, N 3
[9] = Cohort 2 (100 mg AT2220 in Period 2), Time 0, arithmetic mean, N 6
[10] = Cohort 2 (100 mg AT2220 in Period 2), Time 4 h, arithmetic mean, N 6
[11] = Cohort 3 (250 mg AT2220 in Period 2), Day 2, arithmetic mean, N 6
[12] = Cohort 3 (250 mg AT2220 in Period 2), Day 3, arithmetic mean, N 3
[13] = Cohort 3 (250 mg AT2220 in Period 2), Day 7, arithmetic mean, N 3
[14] = Cohort 3 (250 mg AT2220 in Period 2), Time 0, arithmetic mean, N 6
[15] = Cohort 3 (250 mg AT2220 in Period 2), Time 4 h, arithmetic mean, N 6

rhGAA: human recombinant acid α-glucosidase; alglucosidase alfa (Myozyme/Lumizyme) enzyme replacement therapy given by intravenous infusion
rhGAA Activity in PBMCs, % Change from Period 1 (GAA; [2]): −13.9% | rhGAA Activity in PBMCs, Period 2/Period 1 Ratio (GAA; [2]): 0.9 | rhGAA Activity in PBMCs, % Change from Period 1 (GAA; [3]): 4.1% | rhGAA Activity in PBMCs, Period 2/Period 1 Ratio (GAA; [3]): 1.0 | rhGAA Activity in PBMCs, % Change from Period 1 (GAA; [4]): 157% | rhGAA Activity in PBMCs, Period 2/Period 1 Ratio (GAA; [4]): 2.6 | rhGAA Activity in PBMCs, % Change from Period 1 (GAA; [5]): −17.5% | rhGAA Activity in PBMCs, Period 2/Period 1 Ratio (GAA; [5]): 0.8 | rhGAA Activity in PBMCs, % Change from Period 1 (GAA; [6]): 81.0% | rhGAA Activity in PBMCs, Period 2/Period 1 Ratio (GAA; [6]): 1.8 | rhGAA Activity in PBMCs, % Change from Period 1 (GAA; [7]): −36.7% | rhGAA Activity in PBMCs, Period 2/Period 1 Ratio (GAA; [7]): 0.6 | rhGAA Activity in PBMCs, % Change from Period 1 (GAA; [8]): −5.9% | rhGAA Activity in PBMCs, Period 2/Period 1 Ratio (GAA; [8]): 0.9 | rhGAA Activity in PBMCs, % Change from Period 1 (GAA; [9]): −12.4% | rhGAA Activity in PBMCs, Period 2/Period 1 Ratio (GAA; [9]): 0.9 | rhGAA Activity in PBMCs, % Change from Period 1 (GAA; [10]): −8.4% | rhGAA Activity in PBMCs, Period 2/Period 1 Ratio (GAA; [10]): 0.9 | rhGAA Activity in PBMCs, % Change from Period 1 (GAA; [11]): 47.5% | rhGAA Activity in PBMCs, Period 2/Period 1 Ratio (GAA; [11]): 1.5 | rhGAA Activity in PBMCs, % Change from Period 1 (GAA; [12]): 240% | rhGAA Activity in PBMCs, Period 2/Period 1 Ratio (GAA; [12]): 3.4 | rhGAA Activity in PBMCs, % Change from Period 1 (GAA; [13]): 49.0% | rhGAA Activity in PBMCs, Period 2/Period 1 Ratio (GAA; [13]): 1.5 | rhGAA Activity in PBMCs, % Change from Period 1 (GAA; [14]): 107% | rhGAA Activity in PBMCs, Period 2/Period 1 Ratio (GAA; [14]): 2.1 | rhGAA Activity in PBMCs, % Change from Period 1 (GAA; [15]): 1028% | rhGAA Activity in PBMCs, Period 2/Period 1 Ratio (GAA; [15]): 11.3 | decrease in muscle mass in posterior thigh [1]: 11% | decrease in muscle mass in the anterior thigh [1]: 9.8% | increase in intramuscular fat accumulation [1]: 8.9% | subcutaneous fat [1]: 6.6%
